One test relates to MDA-MB-231. Put plainly: Antiproliferative activity against human MDA-MB-231 cells by MTT assay. It is filed as functional, cell-based. For orientation: Formazan colour is commonly taken as a measure of viable cells.
Another test deals with Bcl-2-like protein 1 (Homo sapiens, UniProt Q07817). Put plainly: Inhibition of Bcl-xL (unknown origin) by fluorescence polarization assay. On the technique in general: Fluorescence polarisation rises when a labelled molecule tumbles more slowly, as on binding a larger partner.
Bcl-2-like protein 1, sequence (Q07817 whole entry): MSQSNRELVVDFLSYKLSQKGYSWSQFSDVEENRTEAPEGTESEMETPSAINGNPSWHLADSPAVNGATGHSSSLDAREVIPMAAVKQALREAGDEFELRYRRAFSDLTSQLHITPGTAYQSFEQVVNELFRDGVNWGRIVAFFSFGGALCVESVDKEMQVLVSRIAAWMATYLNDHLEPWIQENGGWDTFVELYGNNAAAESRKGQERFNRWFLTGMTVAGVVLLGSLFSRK
In a further test the test system is K562. Put plainly: Antiproliferative activity against human K562 cells by MTT assay. Type of test: functional, cell-based.
A further test concerns PC-3. As to the kind of experiment: Antiproliferative activity against human PC3 cells by MTT assay. It is filed as functional, cell-based.
Test [1] deals with Induced myeloid leukemia cell differentiation protein Mcl-1 (Homo sapiens, UniProt Q07820). Put plainly: Inhibition of Mcl-1 (unknown origin) by fluorescence polarization assay.
Induced myeloid leukemia cell differentiation protein Mcl-1, sequence (Q07820 whole entry): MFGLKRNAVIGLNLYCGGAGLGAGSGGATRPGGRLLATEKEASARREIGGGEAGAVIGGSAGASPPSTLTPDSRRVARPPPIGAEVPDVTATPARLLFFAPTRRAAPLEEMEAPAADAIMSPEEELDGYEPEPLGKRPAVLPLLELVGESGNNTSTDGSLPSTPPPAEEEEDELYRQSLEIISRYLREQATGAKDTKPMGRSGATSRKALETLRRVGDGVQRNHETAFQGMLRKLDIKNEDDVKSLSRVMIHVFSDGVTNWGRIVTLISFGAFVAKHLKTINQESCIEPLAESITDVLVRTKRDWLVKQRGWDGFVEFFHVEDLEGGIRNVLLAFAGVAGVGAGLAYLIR
For test [2], the target named is T1, Apoptosis regulator Bcl-2 (Homo sapiens, UniProt P10415). As to the kind of experiment: Inhibition of Bcl-2 (unknown origin) by fluorescence polarization assay.
T1 sequence (P10415 whole entry): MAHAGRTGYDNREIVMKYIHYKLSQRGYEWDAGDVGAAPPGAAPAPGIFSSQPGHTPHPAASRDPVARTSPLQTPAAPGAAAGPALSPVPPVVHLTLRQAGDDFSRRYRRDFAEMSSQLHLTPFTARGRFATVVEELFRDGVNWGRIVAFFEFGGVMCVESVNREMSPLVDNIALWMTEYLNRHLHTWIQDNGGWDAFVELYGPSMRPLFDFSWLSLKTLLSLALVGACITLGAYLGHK
For test [3], the target named is T1, Apoptosis regulator Bcl-2. Put plainly: Inhibition of Bcl-2 (unknown origin) at 100 uM by fluorescence polarization assay.

The structures appear in SMILES notation.

For orientation: IC50 means the concentration at which inhibition is half-maximal. Read a high IC50 as weaker potency in that assay. As usually defined, the Ki is a dissociation constant, usually derived from enzyme kinetics or from competition with a known ligand. Lower therefore signals tighter binding. A word on the inhibition: it is how much of the control response was suppressed.

For the molecule `Cc1cc2c(C(C)C)c(O)c(O)c(C=O)c2c(O)c1-c1c(C)cc2c(C(C)C)c(O)c(O)c(C=O)c2c1O` [GOSSYPOL], the figures for the IC50 in the test with MDA-MB-231, in the test on K562 and in the test on PC-3 were 4.8 µM, 7.31 µM and 5.61 µM, respectively. The Ki worked out at 0.64 µM at Bcl-2-like protein 1 and 0.31 µM in test [1].
`Cc1cccc(N2C(=O)/C(=C/c3ccc(OCc4ccc(C(=O)O)cc4)cc3)SC2=S)c1` showed a Ki in test [2] greater than 10 µM.
Still for that read-out and setting: the same measure for `COc1ccc(N2C(=O)/C(=C/c3ccc(OCc4ccc(C(=O)O)cc4)cc3)SC2=S)cc1`: greater than 10 µM; for `Cc1cccc(C)c1N1C(=O)/C(=C/c2ccc(OCC(=O)Nc3ccc(C(=O)O)cc3)cc2)SC1=S`: 7.6 µM.
With `Cc1ccc(S(=O)(=O)NC(=O)[C@H](Cc2ccccc2)N2C(=O)/C(=C/c3ccc(-c4ccccc4)cc3)SC2=S)cc1`, the concentration for half-maximal inhibition (IC50) with MDA-MB-231 was greater than 30 µM; in the test on K562, 32.8 µM; in the test on PC-3, greater than 30 µM. Also, the Ki turned out to be 0.57 µM at Bcl-2-like protein 1, 0.5 µM in test [2] and 0.29 µM in test [1].
`O=C(O)c1ccc(/C=C2\SC(=S)N(c3ccccc3)C2=O)cc1`: in test [3], the inhibition came to 18%. This molecule showed an inhibition constant Ki in test [2] greater than 10 µM.
Turning to `COc1ccccc1N1C(=O)/C(=C/c2cccc(OCc3ccc(C(=O)O)cc3)c2)SC1=S`, the Ki on Bcl-2-like protein 1 was greater than 10 µM; in test [2] it was 1.6 µM; in test [1] it was 3.7 µM.
In test [2], `O=C(O)c1ccc(COc2ccc(/C=C3\SC(=S)N(Cc4ccc(F)cc4)C3=O)cc2)cc1` came in with a Ki greater than 10 µM.
`Cc1ccc(N2C(=O)/C(=C/c3ccc(OCc4ccc(C(=O)O)cc4)cc3)SC2=S)cc1` showed a Ki in test [2] greater than 10 µM.
For `O=C(O)c1ccc(COc2ccc(/C=C3\SC(=S)N(c4cccc([N+](=O)[O-])c4)C3=O)cc2)cc1`, the Ki in test [2] amounted to 9.6 µM.
Still for that read-out and setting: as for `O=C(O)c1ccc(COc2cccc(/C=C3\SC(=S)N(c4ccc([N+](=O)[O-])cc4)C3=O)c2)cc1`, the figure is greater than 10 µM; as for `O=C(O)c1ccc([N+](=O)[O-])c(COc2ccc(/C=C3\SC(=S)N(c4ccccc4)C3=O)cc2)c1`, 9 µM; as for `O=C(O)c1ccc(COc2ccc(/C=C3\SC(=S)N(c4cccc(C(F)(F)F)c4)C3=O)cc2)cc1`, greater than 10 µM.
`O=C(O)c1ccc(COc2ccc(/C=C3\SC(=S)N(c4ccc(F)cc4)C3=O)cc2)cc1`: in test [2], the Ki is greater than 10 µM.
Take `Cc1cccc(C)c1N1C(=O)/C(=C/c2ccc(OCc3ccc(C(=O)O)cc3)cc2)SC1=S`: the IC50 with MDA-MB-231 came to 25.6 µM; in the test on K562, 46.6 µM; with PC-3, 25.8 µM. Further, the Ki amounted to 3.9 µM on Bcl-2-like protein 1, 0.9 µM in test [2] and 0.72 µM in test [1].
`Cc1ccc(N2C(=O)/C(=C/c3ccc(OCC(=O)Nc4ccc(C(=O)O)cc4)cc3)SC2=S)cc1`: in test [2], the Ki was greater than 10 µM.
Take `O=C(O)c1ccc(COc2ccc(/C=C3\SC(=S)N(c4c(F)cccc4F)C3=O)cc2)cc1`: the Ki in test [2] was greater than 10 µM.
The molecule `COc1ccccc1N1C(=O)/C(=C/c2ccc(OCC(=O)Nc3ccc(C(=O)O)cc3)cc2)SC1=S` showed a Ki in test [2] of 10 µM.
The same measure, in the same setting: as for `O=C(COc1ccc(/C=C2\SC(=S)N(c3ccc([N+](=O)[O-])cc3)C2=O)cc1)Nc1ccc(C(=O)O)cc1`, the figure is greater than 10 µM.
The same measure, in the same setting: as for `O=C(O)c1ccc(COc2ccc(/C=C3\SC(=S)N(c4ccc(Cl)cc4)C3=O)cc2)cc1`, the figure is greater than 10 µM.
In test [2], `O=C(Nc1ccc(O)c(C(=O)O)c1)c1ccc(/C=C2\SC(=S)N(c3ccccc3)C2=O)cc1` yielded a Ki greater than 10 µM.
Same read-out and setting: as for `O=C(Nc1ccc(O)c(C(=O)O)c1)c1ccc(/C=C2\SC(=S)N(c3ccc([N+](=O)[O-])cc3)C2=O)cc1`, the figure is greater than 10 µM.
For the molecule `COc1ccccc1N1C(=O)/C(=C/c2ccc(OCc3ccc(C(=O)O)cc3)cc2)SC1=S`, the Ki is greater than 10 µM on Bcl-2-like protein 1, 2 µM in test [2] and 3.9 µM in test [1].
With `O=C(O)c1ccc(COc2ccc(/C=C3\SC(=S)N(c4ccc(Br)cc4)C3=O)cc2)cc1`, the IC50 came out at 19.8 µM in the test on MDA-MB-231, 43.8 µM in the test on K562 and 18.9 µM in the test with PC-3. For the same molecule, the Ki is greater than 10 µM on Bcl-2-like protein 1, 0.61 µM in test [2] and 0.7 µM in test [1].
With `Cc1cccc(N2C(=O)/C(=C/c3ccc(OCC(=O)Nc4ccc(C(=O)O)cc4)cc3)SC2=S)c1`, the Ki in test [2] is greater than 10 µM.
On the same count and under the same terms, the same measure for `O=C(O)c1ccc(COc2ccc(/C=C3\SC(=S)N(c4ccccc4)C3=O)cc2)cc1`: greater than 10 µM; for `O=C(O)c1ccc(COc2cccc(/C=C3\SC(=S)N(c4ccccc4)C3=O)c2)cc1`: greater than 10 µM; for `Cc1ccccc1N1C(=O)/C(=C/c2ccc(OCC(=O)Nc3ccc(C(=O)O)cc3)cc2)SC1=S`: greater than 10 µM.
Take `Cc1ccccc1N1C(=O)/C(=C/c2cccc(OCc3ccc(C(=O)O)cc3)c2)SC1=S`: the Ki was greater than 10 µM at Bcl-2-like protein 1, 3.1 µM in test [2] and 3.2 µM in test [1].
Turning to `O=C(O)c1ccc([N+](=O)[O-])c(COc2ccc(/C=C3\SC(=S)N(c4ccc([N+](=O)[O-])cc4)C3=O)cc2)c1`, the affinity in test [2], expressed as Ki, was 3.1 µM.
On the same count and under the same terms, as for `CC(=O)c1ccc(N2C(=O)/C(=C/c3ccc(OCc4ccc(C(=O)O)cc4)cc3)SC2=S)cc1`, the figure is greater than 10 µM; as for `O=C(O)c1ccc(COc2ccc(/C=C3\SC(=S)N(c4ccc([N+](=O)[O-])cc4)C3=O)cc2)cc1`, greater than 10 µM; as for `O=C(COc1ccc(/C=C2\SC(=S)N(c3ccccc3)C2=O)cc1)Nc1ccc(C(=O)O)cc1`, greater than 10 µM.
Consider `O=C(O)c1ccc(COc2ccc(/C=C3\SC(=S)N(c4ccc(I)cc4)C3=O)cc2)cc1`, for which the Ki at Bcl-2-like protein 1 was greater than 10 µM; in test [2], 4.3 µM; in test [1], 1.6 µM.

(Values after ChEMBL document CHEMBL3627699, “Design, synthesis and biological evaluation of 3-aryl-rhodanine benzoic acids as anti-apoptotic protein Bcl-2 inhibitors” (Bioorg Med Chem Lett, 2015).)
